Organism: Rattus norvegicus
Assay: Open TG-GATES - Regimen: Single
Assay type: toxicity, organism-based, Sprague-Dawley
Design: regimen Single, gender Male, age 6 weeks
Conditions: in vivo, po, 0 mg/kg, route gavage, dose level Control; for APTT / Bas / Eos / Fbg / Hb / Ht / Lym / MCH / MCHC / MCV / Mono / Neu / PT / Plat / RBC / Ret / WBC: tissue Blood; for LIVER: tissue Liver; for A/G / ALP / ALT / AST / BUN / CRE / Ca / Cl / DBIL / GLC / IP / K / LDH / Na / PL / RALB / TBIL / TC / TG / TP / gamma-GTP: tissue Plasma

O=[N+]([O-])c1ccc(O)c([N+](=O)[O-])c1 [2,4-DINITROPHENOL]
TERMINAL_BW (3 h): 200.9 g | APTT (3 h): 15.9 s | Bas (3 h): 0% | Eos (3 h): 0.8% | Fbg (3 h): 241.6 mg/dL | Hb (3 h): 13.2 g/dL | Ht (3 h): 39.5% | Lym (3 h): 74% | MCH (3 h): 21.6 pg | MCHC (3 h): 33.5% | MCV (3 h): 64.4 fL | Mono (3 h): 8.4% | Neu (3 h): 16.8% | PT (3 h): 11.8 s | Plat (3 h): 109.2 x10_4/uL | RBC (3 h): 613.4 x10_4/ul | Ret (3 h): 9.5% | WBC (3 h): 98.2 x10_2/uL | LIVER (3 h): 9.3 g | A/G (3 h): 2.4 | ALP (3 h): 1373.4 IU/L | ALT (3 h): 40.8 IU/L | AST (3 h): 69.4 IU/L | BUN (3 h): 11 mg/dL | CRE (3 h): 0.3 mg/dL | Ca (3 h): 11.1 mg/dL | Cl (3 h): 103.6 meq/L | DBIL (3 h): 0.01 mg/dL | GLC (3 h): 175.6 mg/dL | IP (3 h): 9.4 mg/dL | K (3 h): 4.4 meq/L | LDH (3 h): 117.8 IU/L | Na (3 h): 138.6 meq/L | PL (3 h): 150.4 mg/dL | RALB (3 h): 3.7 g/dL | TBIL (3 h): 0.044 mg/dL | TC (3 h): 87.2 mg/dL | TG (3 h): 52.4 mg/dL | TP (3 h): 5.3 g/dL | gamma-GTP (3 h): 0 IU/L | TERMINAL_BW (6 h): 197.1 g | APTT (6 h): 16.4 s | Bas (6 h): 0% | Eos (6 h): 0.8% | Fbg (6 h): 232 mg/dL | Hb (6 h): 13.4 g/dL | Ht (6 h): 39.8% | Lym (6 h): 77.2% | MCH (6 h): 21.5 pg | MCHC (6 h): 33.6% | MCV (6 h): 63.9 fL | Mono (6 h): 9.6% | Neu (6 h): 12.4% | PT (6 h): 12.2 s | Plat (6 h): 127 x10_4/uL | RBC (6 h): 623.4 x10_4/ul | Ret (6 h): 8.9% | WBC (6 h): 127.4 x10_2/uL | LIVER (6 h): 8.9 g | A/G (6 h): 2.5 | ALP (6 h): 1236 IU/L | ALT (6 h): 36.4 IU/L | AST (6 h): 63.4 IU/L | BUN (6 h): 10.4 mg/dL | CRE (6 h): 0.4 mg/dL | Ca (6 h): 10.8 mg/dL | Cl (6 h): 104.8 meq/L | DBIL (6 h): 0.01 mg/dL | GLC (6 h): 191.6 mg/dL | IP (6 h): 9.3 mg/dL | K (6 h): 4.4 meq/L | LDH (6 h): 96.8 IU/L | Na (6 h): 138.8 meq/L | PL (6 h): 135.4 mg/dL | RALB (6 h): 3.9 g/dL | TBIL (6 h): 0.056 mg/dL | TC (6 h): 79.8 mg/dL | TG (6 h): 52.4 mg/dL | TP (6 h): 5.5 g/dL | gamma-GTP (6 h): 0 IU/L | TERMINAL_BW (9 h): 203.5 g | APTT (9 h): 15.9 s | Bas (9 h): 0% | Eos (9 h): 1% | Fbg (9 h): 234.6 mg/dL | Hb (9 h): 13 g/dL | Ht (9 h): 38.7% | Lym (9 h): 76.2% | MCH (9 h): 22 pg | MCHC (9 h): 33.7% | MCV (9 h): 65.1 fL | Mono (9 h): 8.8% | Neu (9 h): 14.6% | PT (9 h): 12.2 s | Plat (9 h): 117.6 x10_4/uL | RBC (9 h): 595.4 x10_4/ul | Ret (9 h): 9.4% | WBC (9 h): 108 x10_2/uL | LIVER (9 h): 8.7 g | A/G (9 h): 2.5 | ALP (9 h): 1123.8 IU/L | ALT (9 h): 32.8 IU/L | AST (9 h): 63.8 IU/L | BUN (9 h): 11.6 mg/dL | CRE (9 h): 0.3 mg/dL | Ca (9 h): 10.9 mg/dL | Cl (9 h): 104.2 meq/L | DBIL (9 h): 0.01 mg/dL | GLC (9 h): 195.2 mg/dL | IP (9 h): 10.4 mg/dL | K (9 h): 4.6 meq/L | LDH (9 h): 109.6 IU/L | Na (9 h): 139.4 meq/L | PL (9 h): 140 mg/dL | RALB (9 h): 3.8 g/dL | TBIL (9 h): 0.044 mg/dL | TC (9 h): 84.6 mg/dL | TG (9 h): 47.8 mg/dL | TP (9 h): 5.4 g/dL | gamma-GTP (9 h): 0.2 IU/L | TERMINAL_BW (24 h): 219.1 g | APTT (24 h): 16.3 s | Bas (24 h): 0% | Eos (24 h): 1.2% | Fbg (24 h): 228.6 mg/dL | Hb (24 h): 12.7 g/dL | Ht (24 h): 37.5% | Lym (24 h): 72% | MCH (24 h): 21.1 pg | MCHC (24 h): 33.8% | MCV (24 h): 62.5 fL | Mono (24 h): 9.4% | Neu (24 h): 17.8% | PT (24 h): 11.6 s | Plat (24 h): 138.4 x10_4/uL | RBC (24 h): 600 x10_4/ul | Ret (24 h): 8.1% | WBC (24 h): 106.6 x10_2/uL | LIVER (24 h): 10.9 g | A/G (24 h): 2.4 | ALP (24 h): 1480.2 IU/L | ALT (24 h): 37.4 IU/L | AST (24 h): 62.4 IU/L | BUN (24 h): 17 mg/dL | CRE (24 h): 0.4 mg/dL | Ca (24 h): 11.4 mg/dL | Cl (24 h): 103.2 meq/L | DBIL (24 h): 0.012 mg/dL | GLC (24 h): 185.6 mg/dL | IP (24 h): 7.6 mg/dL | K (24 h): 4.6 meq/L | LDH (24 h): 84.2 IU/L | Na (24 h): 139 meq/L | PL (24 h): 160.4 mg/dL | RALB (24 h): 3.9 g/dL | TBIL (24 h): 0.034 mg/dL | TC (24 h): 84 mg/dL | TG (24 h): 120.4 mg/dL | TP (24 h): 5.5 g/dL | gamma-GTP (24 h): 0.2 IU/L
